Data: ChEMBL document CHEMBL6127094, “Discovery of non-antiproliferative selective estrogen receptor degraders (SERDs) based on scaffold optimization of elacestrant” (Eur J Med Chem, 2024)
The source made the active and inactive calls. The rule behind the calls is not given here.

Experiments:
MCF7 [1] = experiment: Antiproliferative activity against human MCF7 cells assessed as reduction in cell viability at 5 to 100 uM incubated for 120 hrs by MTT assay relative to fulvestrant/elacestrant; format: functional, cell-based; conditions: dose 5-100 µM
[2] = molecular target: T1, Estrogen receptor (Homo sapiens) (UniProt P03372); experiment: Induction of selective estrogen receptor degradation (SERD) in human MCF7 cells assessed as decrease in GREB1 mRNA expression level incubated for 24 hrs in presence of E2 (estrogen) by RT-qPCR analysis; format: cell-based
T1 sequence (whole entry): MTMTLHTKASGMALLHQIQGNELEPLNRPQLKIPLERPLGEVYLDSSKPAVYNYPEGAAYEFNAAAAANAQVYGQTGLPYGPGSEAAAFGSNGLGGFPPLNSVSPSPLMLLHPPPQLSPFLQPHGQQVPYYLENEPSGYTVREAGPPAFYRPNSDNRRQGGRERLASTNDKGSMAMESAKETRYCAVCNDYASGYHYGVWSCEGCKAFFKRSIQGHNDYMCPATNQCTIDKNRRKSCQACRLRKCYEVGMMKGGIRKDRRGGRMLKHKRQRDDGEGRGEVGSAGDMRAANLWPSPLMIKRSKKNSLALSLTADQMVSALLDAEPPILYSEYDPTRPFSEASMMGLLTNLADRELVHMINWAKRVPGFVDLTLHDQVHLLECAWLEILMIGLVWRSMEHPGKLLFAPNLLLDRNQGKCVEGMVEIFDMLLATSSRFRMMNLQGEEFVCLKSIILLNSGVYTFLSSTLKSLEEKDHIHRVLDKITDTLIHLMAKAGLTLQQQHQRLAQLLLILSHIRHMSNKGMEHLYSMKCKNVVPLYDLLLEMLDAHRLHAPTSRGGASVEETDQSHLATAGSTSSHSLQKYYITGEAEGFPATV

[3] = molecular target: T1, Estrogen receptor (Homo sapiens); experiment: Induction of selective estrogen receptor degradation (SERD) in human MCF7 cells assessed as decrease in TFF1 mRNA expression level incubated for 24 hrs in presence of E2 (estrogen) by RT-qPCR analysis; format: cell-based
[4] = molecular target: T1, Estrogen receptor (Homo sapiens); experiment: Induction of selective estrogen receptor degradation (SERD) in human MCF7 cells at 5 uM incubated for 24 hrs by Western blot analysis; format: cell-based
[5] = molecular target: T1, Estrogen receptor (Homo sapiens); experiment: Induction of selective estrogen receptor degradation (SERD) in human MCF7 cells assessed as decrease in CCND1 mRNA expression level at 1 to 10 uM incubated for 24 hrs in presence of E2 (estrogen) by RT-qPCR analysis; format: cell-based; conditions: dose 1-10 µM
[6] = molecular target: T1, Estrogen receptor (Homo sapiens); experiment: Induction of selective estrogen receptor degradation (SERD) in human MCF7 cells assessed as decrease in TFF1 mRNA expression level at 1 to 10 uM incubated for 24 hrs in presence of E2 (estrogen) by RT-qPCR analysis; format: cell-based; conditions: dose 1-10 µM
[7] = molecular target: T1, Estrogen receptor (Homo sapiens); experiment: Induction of selective estrogen receptor degradation (SERD) in human MCF7 cells assessed as decrease in CCND1 mRNA expression level at 1 uM incubated for 24 hrs by RT-qPCR analysis; format: cell-based
[8] = molecular target: T1, Estrogen receptor (Homo sapiens); experiment: Induction of selective estrogen receptor degradation (SERD) in human MCF7 cells assessed as decrease in TFF1 mRNA expression level at 1 uM incubated for 24 hrs by RT-qPCR analysis; format: cell-based
T47D = experiment: Antiproliferative activity against human T47D cells assessed as reduction in cell viability at 1 to 10 uM incubated for 120 hrs by MTT assay; format: functional, cell-based; conditions: dose 1-10 µM
[9] = molecular target: T1, Estrogen receptor (Homo sapiens); experiment: Induction of selective estrogen receptor degradation (SERD) in human T47D cells at 5 uM incubated for 24 hrs by Western blot analysis; format: cell-based
MCF7 [10] = experiment: Inhibition of ERE signaling in human MCF7 cells transfected with 3X ERE TATA luciferase plasmid assessed as estrogen response element transcription at 10 uM incubated for 24 hrs by luminescence based analysis relative to elacestrant; format: functional, cell-based

| Structure (SMILES) | Activity (MCF7 [1]) | other results |
| --- | --- | --- |
| CCN(Cc1ccc(OCCN2CCCCCC2)cc1)c1ccccc1N1CCc2cc(O)ccc2C1 | inactive |  |
| CCNCCc1ccc(CN(CC)c2cc(OC)ccc2[C@@H]2CCc3cc(O)ccc3C2)cc1 |  | Activity [2]: Active; Activity [3]: Active |
| CCN(Cc1ccc(/C=C/C(=O)O)cc1)c1cc(F)ccc1N1CCc2cc(O)ccc2C1 | inactive |  |
| CCN(C(=O)c1ccc(OCCN2CCCC2)cc1)c1ccccc1N1CCc2cc(O)ccc2C1 | inactive |  |
| CCN(Cc1ccc(OCCN2CCCCCC2)cc1)c1cc(C(F)(F)F)ccc1N1CCc2cc(O)ccc2C1 | inactive |  |
| CCN(Cc1ccc(OCCN2CCCCCC2)cc1)c1cc(F)ccc1N1CCc2cc(O)ccc2C1 | inactive |  |
| CCN(Cc1ccc(OCCN2CCCC2)cc1)c1cc(F)ccc1N1CCc2cc(O)ccc2C1 | inactive |  |
| CCN(C(=O)c1ccc(OCCN2CCCC2)cc1)c1cc(F)ccc1N1CCc2cc(O)ccc2C1 | inactive |  |
| CCN(Cc1ccc(OCCN2CCCC2)cc1)c1ccccc1N1CCc2cc(O)ccc2C1 | inactive |  |
| CCN(Cc1ccc(OCCN2CCCC2)cc1)c1cc(C(F)(F)F)ccc1N1CCc2cc(O)ccc2C1 | inactive |  |
| CCN(Cc1ccc(OCCN2CCCC2)cc1)c1cc(C)ccc1N1CCc2cc(O)ccc2C1 | inactive |  |
| CCN(Cc1ccc(OCCN2CCCCCC2)cc1)c1cc(C)ccc1N1CCc2cc(O)ccc2C1 | inactive |  |
| CCN(C(=O)c1ccc(OCCN2CCCC2)cc1)c1cc(C(F)(F)F)ccc1N1CCc2cc(O)ccc2C1 | inactive |  |
| CCN(Cc1ccc(/C=C/C(=O)O)cc1)c1ccccc1N1CCc2cc(O)ccc2C1 | inactive |  |
| CCN(C(=O)c1ccc(OCCN2CCCC2)cc1)c1cc(C)ccc1N1CCc2cc(O)ccc2C1 | inactive |  |
| CCN(Cc1ccc(/C=C/C(=O)O)cc1)c1cc(C(F)(F)F)ccc1N1CCc2cc(O)ccc2C1 | inactive | Activity [4]: Active; Activity [5]: Active; Activity [6]: Active; Activity [7]: Active; Activity [8]: Active; Activity (T47D): inactive; Activity [9]: Active; inhibition (MCF7 [10]): inactive |
| CCN(Cc1ccc(/C=C/C(=O)O)cc1)c1cc(C)ccc1N1CCc2cc(O)ccc2C1 | inactive |  |
